# System: Mycobacterium tuberculosis
# Assay: Antimycobacterial activity against Mycobacterium tuberculosis H37Ra
# Type: functional
row,Structure (SMILES),MIC [µg/mL]
1,CNc1ccccc1C(=O)O[C@@H]1[C@@H](C)[C@]2(O)[C@@H]3C=C(C)C(=O)[C@@H]3[C@H](O)C(C)=C[C@H]2[C@@H]2C(C)(C)[C@]12OC(C)=O,> 200
2,CNc1ccccc1C(=O)O[C@@H]1[C@@H](C)[C@]2(O)[C@@H]3C=C(C)C(=O)[C@H]3CC(C)=C[C@H]2[C@@H]2C(C)(C)[C@]12OC(C)=O,50
3,CNc1ccccc1C(=O)O[C@@H]1[C@@H](C)[C@]2(O)[C@@H]3C=C(C)C(=O)[C@@H]3[C@H](O)C(CO)=C[C@H]2[C@@H]2C(C)(C)[C@]12OC(C)=O,25
4,CNc1ccccc1C(=O)O[C@@H]1[C@@H](C)[C@]2(O)[C@@H]3C=C(C)C(=O)[C@@H]3CC(C)=C[C@H]2[C@@H]2C(C)(C)[C@]12OC(C)=O,200
5,CNc1ccccc1C(=O)O[C@@H]1[C@@H](C)[C@]2(O)[C@@H]3C=C(C)C(=O)[C@@H]3CC(CO)=C[C@H]2[C@@H]2C(C)(C)[C@]12OC(C)=O,> 200
6,NNC(=O)c1ccncc1 [ISONIAZID],0.04
7,NC[C@H]1O[C@H](O[C@H]2[C@H](O)[C@@H](O[C@H]3O[C@H](CO)[C@@H](O)[C@H](N)[C@H]3O)[C@H](N)C[C@@H]2N)[C@H](O)[C@@H](O)[C@@H]1O.O=S(=O)(O)O [KANAMYCIN SULFATE],2
8,CNc1ccccc1C(=O)O[C@@H]1[C@@H](C)[C@]2(O)[C@@H]3C=C(C)C(=O)[C@H]3CC(CO)=C[C@H]2[C@@H]2C(C)(C)[C@]12OC(C)=O [SAPINTOXIN A],3.12
9,CNc1ccccc1C(=O)O[C@@H]1[C@@H](C)[C@]2(O)[C@@H]3C=C(C)C(=O)[C@H]3[C@H](O)C(CO)=C[C@H]2[C@@H]2C(C)(C)[C@]12OC(C)=O [SAPINTOXIN B],12.5
10,CNc1ccccc1C(=O)O[C@@H]1[C@@H](C)[C@]2(O)[C@@H]3C=C(C)C(=O)[C@H]3[C@H](O)C(C)=C[C@H]2[C@@H]2C(C)(C)[C@]12OC(C)=O [SAPINTOXIN C],25

# — ChEMBL document CHEMBL1159366, “Antimycobacterial activity of phorbol esters from the fruits of Sapium indicum” (2003)
